Laboratory results from ChEMBL document CHEMBL1141556, “Structural insights into hydroxycoumarin-induced apoptosis in U-937 cells” (Bioorg Med Chem, 2008).
Where “and” joins values, the source holds several entries; their conditions need not be identical. Identical values can stand only once. Calls of active or inactive are those of the source. The calls are words filed in the database; no cut-off is given here.

Tests used:
U-937 [1] = test: Induction of apoptosis in human U937 cells at 250 uM after 24 hrs; type: functional
U-937 [2] = test: Growth inhibition of human U937 cells by [3H]thymidine incorporation assay; type: functional, cell-based
U-937 [3] = test: Effect on DNA fragmentation in human U937 cells assessed as ladder-like pattern at 2 mM after 24 hrs; type: functional, cell-based
U-937 [4] = test: Cytotoxicity against human U937 cells by trypan blue assay after 48 hrs; type: functional; details: U-937, 48 h
U-937 [5] = test: Reversal of induction of apoptosis in human U937 cells at 250 uM in presence of 10 mM NAC added every 8 hrs for 24 hrs; type: functional, cell-based
U-937 [6] = test: Reversal of proapoptotic effect in human U937 cells assessed as inhibition of ladder-like pattern at 250 uM in presence of 10 mM NAC added every 8 hrs for 24 hrs; type: functional, cell-based
U-937 [7] = test: Induction of DNA fragmentation in human U937 cells at 2 mM after 24 hrs; type: functional, cell-based

Row | Structure (SMILES) | Activity (U-937 [1]) | IC50 (U-937 [2]; Homo sapiens, U-937) [µM] | Activity (U-937 [3]) | CC50 (U-937 [4]) [µM] | Activity (U-937 [5]) | Activity (U-937 [6]) | Activity (U-937 [7]) | IC50 (U-937 [2]; u-937) [µM]
1 | Cc1cc(=O)oc2ccc(O)cc12 | 3% | 628 | Active | > 2000 | – | – | – | –
2 | Cc1ccc2c(C)cc(=O)oc2c1 | 5.3% | > 2000 | – | > 2000 | – | – | – | –
3 | Cc1cc(=O)oc2c(C)cccc12 | 4.6% | > 2000 | – | > 2000 | – | – | – | –
4 | Cc1ccc2oc(=O)cc(C)c2c1 | 4.3% | > 2000 | – | > 2000 | – | – | – | –
5 | O=c1oc2ccccc2cc1O [3-HYDROXYCOUMARIN] | 5.3% | > 2000 | – | > 2000 | – | – | – | –
6 | Cc1cc(=O)oc2c(O)c(O)ccc12 [4-METHYLDAPHNETIN] | 55% | 48.6 | – | 165 | Active | Active | – | –
7 | O=c1ccc2ccccc2o1 [COUMARIN] | 2.6% | > 2000 | – | > 2000 | – | – | – | –
8 | O=c1ccc2cc(O)c(O)cc2o1 [ESCULETIN] | 54.3% | 31.3 | – | 194 | – | – | Active | –
9 | COc1ccc2c(C)cc(=O)oc2c1 [HYMECROMONE METHYL ETHER] | 4% | > 2000 | – | > 2000 | – | – | – | –
10 | Cc1cc(=O)oc2cc(O)ccc12 [HYMECROMONE] | 5.2% and 4.7% | – | Active | > 2000 | – | – | – | > 2000
11 | COc1cc2ccc(=O)oc2cc1O [SCOPOLETIN] | 6.3% | 152 | Active | 600 | – | – | – | –
